Assay results taken from patent publication US12508273B2, “Beta-1,3′-galactosyllactose for the treatment of gut barrier function diseases” (N.V. Nutricia, priority 2019, dated 2025).

How the values were obtained:
Type in all cases: cell-based, human
[1] = test system: IL-8 (CXCL8) release by Caco-2 cells; assay: DON-induced IL-8 (CXCL8) release by Caco-2 cells, ELISA; settings: DON alone 4.2 M, 24 h
Procedure: (§1) Caco-2 cell monolayers were thus grown in a transwell system, which is a model for intestinal barrier function. The monolayers were pretreated for 24 h with different GLs, including beta3′-GL, alpha3′-GL, beta4′-GL and beta6′-GL in a concentration of 0.75 wt % of the GL, before being exposed to the fungal toxin deoxynivalenol (DON), which is a trigger and model compound to impair intestinal barrier. DON was diluted to a final concentration of […] in complete cell medium and added to the apical side as well as to the basolateral side of the transwell inserts. […] Incubation with DON was 24 h.
(§2) Measurements of the transepithelial electrical resistance (TEER) and lucifer yellow (LY) permeability were conducted to investigate barrier integrity. […] Results are expressed as a percentage of the initial value. For paracellular tracer flux assay the membrane impermeable lucifer yellow (LY) (Sigma, St Luis, MO, USA) was added in a concentration of 16 μg/ml to the apical compartment in the transwell plate for 4 h, and the paracellular flux was determined by measuring the fluorescence intensity in the basolateral compartment with a spectrophotofluorimeter (FLUOstar Optima, BMG Labtech, Offenburg, Germany) set at excitation and emission wavelengths of 410 and 520 nm, respectively. […]

Caco-2 cells = assay: Viability of Caco-2 cells exposed to DON; settings: DON 4.2 M in complete cell medium, apical and basolateral
Procedure: as §1

Caco-2 cell monolayer [2] = assay: Transepithelial electrical resistance (TEER) of Caco-2 monolayers after DON-induced impairment
Procedure: (§3) Caco-2 cells were used according to established methods. In brief: cells were cultured in Dulbecco's modified Eagle medium (DMEM) and seeded at a density of 0.3×10^5 cells into 0.3 cm^2 high pore density (0.4 μm) inserts with a polyethylene terephthalate membrane (BD Biosciences, Franklin Lakes, NJ, USA) placed in a 24-well plate. The Caco-2 cells were maintained in a humidified atmosphere of 95 air and 5% CO2 at 37° C. After 17-19 days of culturing, a confluent monolayer was obtained with a mean Transepithelial electrical resistance (TEER) exceeding 400 Ωcm^2 measured by a Millicell-Electrical Resistance System voltohm-meter (Millipore, Temecula, CA, USA).
as §1
Measurements of the transepithelial electrical resistance (TEER) and lucifer yellow (LY) permeability were conducted to investigate barrier integrity. For TEER measurements a Millicel-ERS voltohmmeter connected to a pair of chopsticks electrodes was used to measure the TEER values. Results are expressed as a percentage of the initial value. For paracellular tracer flux assay the membrane impermeable lucifer yellow (LY) (Sigma, St Luis, MO, USA) was added in a concentration of 16 μg/ml to the apical compartment in the transwell plate for 4 h, and the paracellular flux was determined by measuring the fluorescence intensity in the basolateral compartment with a spectrophotofluorimeter (FLUOstar Optima, BMG Labtech, Offenburg, Germany) set at excitation and emission wavelengths of 410 and 520 nm, respectively. Release of interleukin-8 (IL-8 or CXCL8), which is a typical marker for inflammation, was quantified in the medium of the apical side and the basolateral side of the Caco-2 transwell inserts in response to the treatments. CXCL8 concentrations were measured by using the human IL-8 ELISA assay (BD Biosciences, Pharmingem, San Diego, CA, USA) according to manufacturer's instructions. For more details on materials and methods see Akbari et al, 2016, Eur J Nutr. 56(5):1919-1930.
Barrier function experiments were performed in a similar way as in example 2 using the following concentrations of Vivinal GOS (VGOS): 0 (Control), 0.25 wt % (VGOS 0.25), 0.5 wt % (VGOS 0.5), 0.75 wt % (VGOS 0.75), 1 wt % (VGOS 1), 1.5 wt % (VGOS 1.5) and 2 wt % (VGOS 2). For TOS concentrations of 0.25 wt % (TOS 0.25) and 0.5 wt % (TOS 0.5) were tested.

Caco-2 cell monolayer [3] = assay: Lucifer yellow (LY) paracellular flux across Caco-2 monolayers after DON-induced impairment; settings: GL 0.75 wt %, 24 h pretreatment, then DON 4.2 M 24 h; FIGS. 1C, 1D
Procedure: as §3, with “USA). […]” for “USA).”
as §2

[4] = GL 0.75 wt %, 24 h pretreatment, then DON 4.2 M 24 h

## CC1=C[C@H]2O[C@@H]3[C@H](O)C[C@](C)([C@@]2(CO)[C@H](O)C1=O)[C@]31CO1 [DON, deoxynivalenol]
[1]
  CXCL8 (IL-8) release: increased CXCL8 (IL-8) release
Caco-2 cells
  viability of the Caco-2 cells: did not affect the viability

## OC[C@H]1O[C@H](O[C@H]2[C@@H](O)[C@@H](CO)O[C@@H](O[C@H]3[C@H](O)[C@@H](O)C(O)O[C@@H]3CO)[C@@H]2O)[C@H](O)[C@@H](O)[C@H]1O (stereo partly drawn) [alpha3′-GL, Gal (alpha 1-3)-Gal (beta 1-4)-Glc]
Caco-2 cell monolayer [2]; [4]
  effect on DON-induced loss of epithelial barrier integrity (TEER and LY flux): did not prevent the DON-induced disrupted intestinal barrier

## OC[C@H]1O[C@@H](O[C@@H]2[C@H](O)[C@@H](O)[C@H](O[C@H]3[C@H](O)[C@@H](O)C(O)O[C@@H]3CO)O[C@@H]2CO)[C@H](O)[C@@H](O)[C@H]1O (stereo partly drawn) [beta4′-GL, Gal (beta 1-4)-Gal (beta 1-4)-Glc]
Caco-2 cell monolayer [2]; [4]
  effect on DON-induced loss of epithelial barrier integrity (TEER and LY flux): did not show a significant effect

## OC[C@H]1O[C@@H](OC[C@H]2O[C@@H](O[C@H]3[C@H](O)[C@@H](O)C(O)O[C@@H]3CO)[C@H](O)[C@@H](O)[C@H]2O)[C@H](O)[C@@H](O)[C@H]1O (stereo partly drawn) [beta6′-GL, Gal (beta 1-6)-Gal (beta 1-4)-Glc]
Caco-2 cell monolayer [2]; [4]
  effect on DON-induced loss of epithelial barrier integrity (TEER and LY flux): did not show a significant effect

## Gal (beta 1-3)-Gal (beta 1-4)-Glc [beta3′-GL]
Caco-2 cell monolayer [3]
  LY flux after DON challenge: reduction in the DON-affected LY flux
Caco-2 cell monolayer [2]; Caco-2, DON challenge, beta3′-GL as part of TOS
  concentration of beta3′-GL in TOS at which the barrier effect is observed: lower than 0.17 wt %
Caco-2 cell monolayer [2]; [4]
  effect on DON-induced loss of epithelial barrier integrity (TEER and LY flux): prevented the DON-induced loss of epithelial barrier integrity
Caco-2 cell monolayer [2]; GL 0.75 wt %, 24 h pretreatment, then DON 4.2 M 24 h, FIGS. 1A, 1B
  TEER after DON challenge: increased TEER values
Caco-2 cell monolayer [2]; GL 0.75 wt %, 24 h pretreatment, then DON 4.2 M 24 h, listed as beta1,3′-galactosyllactose
  effect on DON-induced loss of epithelial barrier integrity (TEER and LY flux): prevented loss of epithelial barrier integrity to a much higher extent than other galactosyl-lactoses
